Measurements taken from patent US5219884A, “Immunosuppressant” (Taito Co., Ltd., priority 1990, dated 1993).
Where two headings read alike, the source gives them in different places.

How the values were obtained:
[1] = test system: mouse allogenic mixed lymphocyte reaction (BALB/c responder, C57BL/6 stimulator spleen cells); experiment: mouse allogenic mixed lymphocyte reaction (MLR), blastogenesis by 3H-thymidine uptake; type: cell-based
[2] = cytotoxicity to mouse L929 cells; type: cell-based; conditions: mouse, l929 cells, read-out: Suppression
[3] = test system: mouse L929 cells; experiment: cytotoxicity to mouse L929 cells; type: cell-based; conditions: 550 nm
[4] = in vitro; type: cell-based, human; conditions: human, read-out: Suppression
[5] = test system: CCRF-CEM; experiment: in vitro; type: cell-based, human
[6] = test system: HL60; experiment: in vitro; type: cell-based, human
[7] = test system: K562; experiment: in vitro; type: cell-based, human
[8] = test system: KB; experiment: in vitro; type: cell-based, human
[9] = test system: PC-14; experiment: in vitro; type: cell-based, human
[10] = test system: U937; experiment: in vitro; type: cell-based, human
[11] = cytotoxicity to tumor cell line MOLT4; type: cell-based, human; conditions: human, molt4 cells, read-out: Suppression
Summary of the method: (§1)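 Human tumour lines at 2×10^5 cells/ml in RPMI1640 with 20% FCS were mixed 1:1 with test solution and cultured 72 h at 37° C, 5% CO2. MTT colorimetry at 550 nm; percent suppression served as the cytotoxicity index.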

[12] = test system: MOLT4; experiment: cytotoxicity to tumor cell line MOLT4; type: cell-based, human
Summary of the method: as §1

CCCCCCC(=O)CCCCCC/C=C/CC1OC(=O)C(CO)(NC(C)=O)C1O (stereo not drawn) [Example 11] showed a 3H-thymidine uptake ([1]; 0.001 μg/ml) of 32597 cpm, a 3H-thymidine uptake ([1]; 0.01 μg/ml) of 30777 cpm and a 3H-thymidine uptake ([1]; 0.1 μg/ml) of 23430 cpm. For the same molecule, the inhibition at 0.001 µg/mL ([1]; Mus musculus, Lymphocyte, 0.001 μg/ml, read-out: Suppression) was 0%, the inhibition at 0.01 µg/mL ([1]; Mus musculus, Lymphocyte, 0.01 μg/ml, read-out: Suppression) was 0% and the inhibition at 0.1 µg/mL ([1]; Mus musculus, Lymphocyte, 0.1 μg/ml, read-out: Suppression) was 18.2%. For the same molecule, the cytotoxicity at 48 h ([2]; 1 μg/ml) was 0%, the cytotoxicity at 48 h ([2]; 10 μg/ml) was 0% and the cytotoxicity at 48 h ([2]; 100 μg/ml) was 91.8%. The Absorbancy ([3]; 1 μg/ml) was 0.710, the Absorbancy ([3]; 10 μg/ml) was 0.669 and the Absorbancy ([3]; 100 μg/ml) was 0.047. It also gave a cytotoxicity at 72 h ([4]; ccrf-cem cells, 0.1 μg/ml) of 0%, a cytotoxicity at 72 h ([4]; ccrf-cem cells, 1.0 μg/ml) of 4.2% and a cytotoxicity at 72 h ([4]; ccrf-cem cells, 10.0 μg/ml) of 12.9%. For the same molecule, the cytotoxicity at 72 h ([4]; hl60 cells, 0.1 μg/ml) was 9%, the cytotoxicity at 72 h ([4]; hl60 cells, 1.0 μg/ml) was 12.6% and the cytotoxicity at 72 h ([4]; hl60 cells, 10.0 μg/ml) was 27%. It also gave a cytotoxicity at 72 h ([4]; k562 cells, 0.1 μg/ml) of 17.7%, a cytotoxicity at 72 h ([4]; k562 cells, 1.0 μg/ml) of 12.5% and a cytotoxicity at 72 h ([4]; k562 cells, 10.0 μg/ml) of 34.5%. The cytotoxicity at 72 h ([4]; kb cells, 0.1 μg/ml) was 7%, the cytotoxicity at 72 h ([4]; kb cells, 1.0 μg/ml) was 5.8% and the cytotoxicity at 72 h ([4]; kb cells, 10.0 μg/ml) was 30.1%. It also gave a cytotoxicity at 72 h ([4]; pc-14 cells, 0.1 μg/ml) of 6.5%, a cytotoxicity at 72 h ([4]; pc-14 cells, 1.0 μg/ml) of 12.7% and a cytotoxicity at 72 h ([4]; pc-14 cells, 10.0 μg/ml) of 40%. The cytotoxicity at 72 h ([4]; u937 cells, 0.1 μg/ml) was 0%, the cytotoxicity at 72 h ([4]; u937 cells, 1.0 μg/ml) was 0% and the cytotoxicity at 72 h ([4]; u937 cells, 10.0 μg/ml) was 23%. The Absorbancy ([5]; 0.1 μg/ml) was 0.694, the Absorbancy ([5]; 1.0 μg/ml) was 0.663 and the Absorbancy ([5]; 10.0 μg/ml) was 0.603. For the same molecule, the Absorbancy ([6]; 0.1 μg/ml) was 0.475, the Absorbancy ([6]; 1.0 μg/ml) was 0.456 and the Absorbancy ([6]; 10.0 μg/ml) was 0.381. It also gave an Absorbancy ([7]; 0.1 μg/ml) of 0.317, an Absorbancy ([7]; 1.0 μg/ml) of 0.337 and an Absorbancy ([7]; 10.0 μg/ml) of 0.257. For the same molecule, the Absorbancy ([8]; 0.1 μg/ml) was 0.679, the Absorbancy ([8]; 1.0 μg/ml) was 0.688 and the Absorbancy ([8]; 10.0 μg/ml) was 0.510. The Absorbancy ([9]; 0.1 μg/ml) was 0.443, the Absorbancy ([9]; 1.0 μg/ml) was 0.413 and the Absorbancy ([9]; 10.0 μg/ml) was 0.284. The Absorbancy ([10]; 0.1 μg/ml) was 0.598, the Absorbancy ([10]; 1.0 μg/ml) was 0.583 and the Absorbancy ([10]; 10.0 μg/ml) was 0.449. The cytotoxicity at 72 h ([11]; 0.1 μg/ml) was 0%, the cytotoxicity at 72 h ([11]; 1.0 μg/ml) was 0% and the cytotoxicity at 72 h ([11]; 10.0 μg/ml) was 11.7%. It also gave an Absorbancy ([12]; 0.1 μg/ml) of 0.182, an Absorbancy ([12]; 1.0 μg/ml) of 0.150 and an Absorbancy ([12]; 10.0 μg/ml) of 0.128.
